Test results: patent publication US8524498B2, “Methods and compositions for homologous recombination in human cells” (The General Hospital Corporation, priority 2009, dated 2013)

Assays:
[1] = tested on: hLR5 cells; test: Conversion of hLR5 cells into stable pluripotent LD-hiPS colonies; type: cell-based, human; conditions: for enhancement of hLR5 conversion: titration curve of GSK3β inhibitor alone or in combination with LIF and/or PD98059, even at high concentration (not shown); for conversion frequency of hLR5 cells into LD-hiPS cells: LIF and MEK inhibitor PD98059 added during the conversion process, about 0.01% without; for increase in conversion frequency compared to FGF alone: LIF and PD98059 (50 μM) in combination; for hLR5 conversion rate: agent added alone to bFGF after doxycycline withdrawal, PD98059 50 μM
Protocol: FIG. 9: Conversion rate of hLR5 cells into LD-hi PS cells is influenced by growth factors and inhibition of MEK signaling. Bar graph indicates the average number of stable pluripotent LD-hiPS colonies obtained after plating of 100.000 hLR5 cells in the presence of the indicated combinations of growth factors and MEK inhibitor (PD98059, 50 μM).
FIG. 4A outlines the procedure of converting hLR5 cells into stable iPS cells. Clonal hLR5 cell lines were plated at a density of 5000 cells per cm^2 in media containing human LIF and doxycycline to support the continued expression of ectopic reprogramming factors. The next day, doxycycline was withdrawn from the hLR5 cultures and cells were further maintained in the presence of bFGF alone (FIG. 4A). […] These cells are referred to herein as hLR5-derived human iPS cells (LD-hiPS) to signify their prior hLR5 status. The conversion frequency of hLR5 cells into LD-hiPS cells was low, approximately 0.01%, yet similar to the conversion of murine metastable iPS cells of the NOD strain into stable EpiSC-like iPS cells (Hanna et al., 2009). […] Whether LIF and/or small molecule inhibitors could positively influence the conversion of hLR5 cells to a stable pluripotent state was analyzed.

[2] = tested on: JAK-STAT signaling pathway; test: LIF stimulation of hLR5 cells: JAK-STAT pathway activation (Western blot, STAT3 immunostaining, gene expression); type: cell-based, human
Text: FIGS. 2A-2F: LIF-responsiveness of hLR5 cells. 2A Western blot analysis of STAT3 phosphorylation in two independent hLR5 clones, with or without LIF-stimulation as indicated; 2B Immunostaining of STAT3 subcellular localization in hLR5 cells before (top panel) or after (bottom panel) LIF stimulation. Note the translocation of STAT3 from the cytoplasm (top panel) to the nucleus (bottom panel). Cell nuclei were visualized with DAPI; 2C Gene expression analysis of downstream target genes of the JAK/STAT signaling pathway in three hLR5 clones as well as human ES cell lines and conventional human iPS cell lines; 2D Flow cytometry analysis of SSEA 1 surface marker on hLR5 cells upon LIF removal. Lines indicate (i) LIF control, (ii) LIF substitution with bFGF, and (iii) no added growth factor; 2E Colony morphology of the hLR5 cells before (top panel) and after LIF substitution with bFGF; 2F Flow cytometry analysis of SSEA1 cell surface marker expression on hLR5 cells in the presence of small molecule inhibitors of the JAK/STAT and MEK/ERK signaling pathways. hLR5 cells were maintained in hLR5 media for 1 week in the presence of inhibitors. Grey shaded area: Jak-inhibitor, lines: MEK inhibitors (PD9805, PD1 84352 and PD0325901, as indicated). A line indicating a control (i.e., lacking inhibitor) is also present. […]

[3] = tested on: hLR5 cells; test: SSEA1 cell surface marker expression by flow cytometry on hLR5 cells cultured with pathway inhibitors; type: cell-based, human; conditions: flow cytometry after 1 week culture in hLR5 media with inhibitor; Jak-inhibitor I 0.6 μM, PD98059 50 μM, PD1 84352 0.8 μM, PD0325901 1 μM
Text: FIGS. 2A-2F: LIF-responsiveness of hLR5 cells. 2A Western blot analysis of STAT3 phosphorylation in two independent hLR5 clones, with or without LIF-stimulation as indicated; 2B Immunostaining of STAT3 subcellular localization in hLR5 cells before (top panel) or after (bottom panel) LIF stimulation. Note the translocation of STAT3 from the cytoplasm (top panel) to the nucleus (bottom panel). Cell nuclei were visualized with DAPI; 2C Gene expression analysis of downstream target genes of the JAK/STAT signaling pathway in three hLR5 clones as well as human ES cell lines and conventional human iPS cell lines; 2D Flow cytometry analysis of SSEA 1 surface marker on hLR5 cells upon LIF removal. Lines indicate (i) LIF control, (ii) LIF substitution with bFGF, and (iii) no added growth factor; 2E Colony morphology of the hLR5 cells before (top panel) and after LIF substitution with bFGF; 2F Flow cytometry analysis of SSEA1 cell surface marker expression on hLR5 cells in the presence of small molecule inhibitors of the JAK/STAT and MEK/ERK signaling pathways. hLR5 cells were maintained in hLR5 media for 1 week in the presence of inhibitors. Grey shaded area: Jak-inhibitor, lines: MEK inhibitors (PD9805, PD1 84352 and PD0325901, as indicated). A line indicating a control (i.e., lacking inhibitor) is also present.
Upon removal or substitution of LIF from the hLR5 culture media, SSEA1 expression waned (FIG. 2D). In addition, a change in colony morphology was observed following LIF withdrawal (FIG. 2E). In murine ES cells, LIF activates the JAK/STAT3 and the RAS/MEK/MAPK signaling pathways, which have opposing roles in murine ES cell maintenance and differentiation. […] Specific inhibitors of JAK/STAT signaling or the MAPK/MEK signaling pathway were used to examine the relative role of these pathways in hLR5 cells. SSEA1 cell surface marker expression was examined by flow cytometry upon culture of hLR5 cells in the presence of specific inhibitors for 1 week.
Cells were collected by trypsinization and resuspended in ice-cold RPMI+0.5% FBS. Cells were incubated with the antibodies against the indicated surface antigens for 30 min at 4° C. The following antibodies were used for cell surface marker profiling: SSEA 1 (BD BIOSCIENCES™), TRA-1-81, TRA-1-60, SSEA3 and SSEA4 (MILLIPORE™). Cells were washed twice with RPMI/0.5% FBS and incubated with the relevant fluorophore-conjugated secondary antibody (BD BIOSCIENCES™) for 30 min at 4° C. Cells were washed twice with RPMI/0.5% FBS, resuspended in RPMI/0.5% FBS and analyzed on a BECTON-DICKINSON FACSCALIBUR™ cell analyzer.

[4] = tested on: human pluripotent stem cells; test: Culture of human pluripotent stem cells with pharmacological inhibitors: passaging, proliferation, colony morphology; type: cell-based; conditions: for colony morphology of human pluripotent stem cells (ES cells and iPS cells): CHIR99021 (3 μM) together with PD98059 (50 μM)
Text: FIGS. 12A-12C: Inhibition of PKA or GSK3β signaling enhances human pluripotent stem cell proliferation rate and improves the introduction of transgenes by homologous recombination. 12A. Cell proliferation curve. Cell numbers of human iPS cells were counted at the indicated time intervals. Plotted is the cumulative cell number over 37 days of culture. All cells were maintained in standard human iPS culture conditions (e.g., Maherali et al. Cell Stem Cell 2008, 3:340-345) with indicated additions: DMSO ([…], 0.1%); CHIR99021 (GSK3β inhibitor, 3 μM), Kenpaullone (GSK3β inhibitor, 5 μM); BIO (GSK3β inhibitor, 15 μM) and SB216763 (GSK3β inhibitor, 1 μM). 12B Colony morphology of human pluripotent stem cells cultured in the presence of the GSK3β inhibitor (3 μM) and PD98059 (50 μM). 12C Influence of signaling inhibitors on the introduction of a 10 kb transgene construct carrying a puromycin selection cassette. Puromycin selection was applied at 0.25 μg/mL 48 hours after electroporation of human iPS cells with 20 μg of the linearized plasmid.
It was therefore sought to explore if small molecule inhibitors can affect human pluripotent stem cell colony morphology, proliferation and the ability to introduce transgenes using homologous recombination. Human pluripotent stem cells were maintained in standard medium (DMEM/F12 containing 20% knockout serum replacement, 2 mM L-Glutamine, 1% non-essential amino acids, 100 U of penicillin, 100 μg streptomycin, 0.1 mM beta-mercaptoethanol and 5 ng/mL bFGF, with or without pharmacological inhibitors.
The inhibition of GSK3β can increase the frequency of homologous recombination in both iPS cells derived in the presence of the five reprogramming factors as described above, and in human ES cells. The human ES cells acquired a mouse ES cell-like morphology, became capable of single cell expansion, and became capable of trypsin passaging when incubated with a GSK3β inhibitor. The effect and the increase in homologous recombination could be facilitated by co-addition of MEK inhibitor(s).

For `O=C1Cc2c([nH]c3ccc(Br)cc23)-c2ccccc2N1` [Kenpaullone], the “enhancement of hLR5 conversion” value [1] was “did not enhance hLR5 conversion”.

“LIF: human LIF growth factor activating JAK-STAT signaling” was tested, and the “conversion frequency of hLR5 cells into LD-hiPS cells” value [1] was roughly 0.1%, the “increase in conversion frequency compared to FGF alone” value [1] was roughly 8 fold and the hLR5 conversion rate [1] was “slight increase”. For the same molecule, the “STAT3 nuclear translocation in hLR5 cells” value ([2]; 15 minute stimulation with human LIF, immunofluorescence) was “rapid STAT3 nuclear translocation” and the “STAT3 phosphorylation in hLR5 cells” value ([2]; LIF stimulation, Western blot) was “robustly induces STAT3 phosphorylation”.

With `O=C(NOC[C@H](O)CO)c1ccc(F)c(F)c1Nc1ccc(I)cc1F` [PD0325901] the “expression of SSEA1 on hLR5 cells” value [3] was “did not affect cell surface marker expression”.

For `O=C(NOCC1CC1)c1ccc(F)c(F)c1Nc1ccc(I)cc1Cl` [PD1 84352], the “expression of SSEA1 on hLR5 cells” value [3] was “did not affect cell surface marker expression”.

For `COc1cccc(-c2cc(=O)c3ccccc3o2)c1N` [PD98059], the “expression of SSEA1 on hLR5 cells” value [3] was “did not affect cell surface marker expression”, the “conversion frequency of hLR5 cells into LD-hiPS cells” value [1] was roughly 0.1% and the “increase in conversion frequency compared to FGF alone” value [1] was roughly 8 fold. The hLR5 conversion rate [1] was “slight increase” and the “colony morphology of human pluripotent stem cells (ES cells and iPS cells)” value [4] was “adopted the characteristic tight dome-shaped morphology of murine ES cells”.

With `C[S+](C)[O-]` [DMSO] the “trypsin passaging of human pluripotent stem cells” value ([4]; standard medium with inhibitor, DMSO 0.1%) was “allowed trypsin passaging” and the “pluripotent stem cell proliferation rate” value ([4]; standard medium with inhibitor, DMSO 0.1%, cumulative cell number over 37 days) was “enhanced the pluripotent stem cell proliferation rate”.

For Jak-inhibitor I, the “expression of SSEA1 on hLR5 cells” value [3] was “marked decrease”.

With `Cc1c[nH]c(-c2cnc(NCCNc3ccc(C#N)cn3)nc2-c2ccc(Cl)cc2Cl)n1` [CHIR99021] the “enhancement of hLR5 conversion” value [1] was “did not enhance hLR5 conversion” and the “colony morphology of human pluripotent stem cells (ES cells and iPS cells)” value [4] was “adopted the characteristic tight dome-shaped morphology of murine ES cells”.
